Reference: a compilation of properties of binary mixtures (doi:10.1021/je800965t)

Assay: xn = mol fraction of the nth substance listed
Conditions: 101 kPa

CCCn1cc[n+](C)c1C.F[B-](F)(F)F + O
viscosity [mPa·s]
Conditions	x2 = 0	x2 = 0.0939	x2 = 0.1932	x2 = 0.2833	x2 = 0.3944	x2 = 0.4987	x2 = 0.5995	x2 = 0.6985	x2 = 0.8009	x2 = 0.8988
298.15 K	377	225	–	85.3	50.6	31.29	19.71	12.03	6.69	3.23
303.15 K	272	168	–	66.8	–	–	16.21	10.04	5.67	2.78
308.15 K	202	127.9	81.1	–	–	21.07	–	8.53	4.9	2.42
313.15 K	152	99.3	64.5	43.2	27.18	17.63	11.52	7.31	4.23	2.14
318.15 K	117.4	–	–	35.71	22.79	14.97	9.88	6.34	3.71	1.89
323.15 K	92.3	63.3	42.8	29.65	19.32	12.87	8.58	5.55	3.29	1.69
333.15 K	60.4	–	–	21.37	14.38	9.78	–	–	2.62	1.39
343.15 K	40.7	–	21.84	16.02	11.04	7.66	5.3	3.53	2.15	1.16

O + CCCn1cc[n+](C)c1C.F[B-](F)(F)F
x1 = 1
Conditions	viscosity [mPa·s]
298.15 K	0.89
303.15 K	0.8
313.15 K	0.65
318.15 K	0.6
323.15 K	0.55
333.15 K	0.47
343.15 K	0.4
